Experimental data taken from patent US6706664B1, “Benzoxazole compounds, process for the preparation thereof and herbicides” (UBE Industries, Ltd., priority 1999, dated 2004).

What was measured:
Design in all cases: key: 0: normal development; 1: Less damaged; 2: Slightly damaged; 3: Moderately damaged; 4: Severely damaged; 5: All killed
[1] = test system: barnyardgrass; assay: Herbicidal test for paddy field; assay type: in vivo, Echinochloa crusgalli; conditions: paddy field pot, 500 g/ha dropwise at 1.5 leaf stage of barnyardgrass, 3 weeks, rank vs non-treated
Method in brief: (§1)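 Ube alluvial soil in pots flooded to 3 cm water depth, sown with seeds or tubers. Wettable powder diluted in water with 0.05% surfactant was dripped onto the water at 500 g/ha when barnyardgrass reached the 1.5-leaf stage. After 3 weeks in a glasshouse at an average of 25° C, damage was scored 0 (normal) to 5 (all killed) against untreated pots.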

[2] = test system: monochoria; assay: Herbicidal test for paddy field; assay type: in vivo, Monochoria vaginalis; conditions: paddy field pot, 500 g/ha dropwise at 1.5 leaf stage of barnyardgrass, 3 weeks, rank vs non-treated
Method in brief: as §1

[3] = test system: blackgrass; assay: Soil treatment test for upland field; assay type: in vivo, Alopecurus aegualis; conditions: 500 g/ha, glass house 25° C., 3 weeks
Method in brief: (§2)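 Compounds were formulated as wettable powders and applied pre-emergence to the surface of freshly sown alluvial soil at 500 g/ha. After three weeks in a glass house averaging 25° C, damage was rated from 0 (normal development) to 5 (all killed).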

[4] = test system: common lambsquartes; assay: Soil treatment test for upland field; assay type: in vivo, Chenopodium album; conditions: 500 g/ha, glass house 25° C., 3 weeks
Method in brief: as §2

[5] = test system: velvetleaf; assay: Soil treatment test for upland field; assay type: in vivo, Abutilon theophrasti; conditions: 500 g/ha, glass house 25° C., 3 weeks
Method in brief: as §2

[6] = test system: blackgrass; assay: Foliar spread test for upland field; assay type: in vivo, Alopecurus aegualis; conditions: foliar spray 500 ppm, 3 weeks, rank vs non-treated
Method in brief: (§3)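 Post-emergence foliar spray, 500 ppm (wettable powder in water + 0.5% surfactant), on ~2-week-old plants grown in volcanic ash soil; glasshouse, avg 25° C, 3 wk; visual damage score 0–5.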

[7] = test system: velvetleaf; assay: Foliar spread test for upland field; assay type: in vivo, Abutilon theophrasti; conditions: foliar spray 500 ppm, 3 weeks, rank vs non-treated
Method in brief: as §3

[8] = test system: young rice plant; assay: Herbicidal test for paddy field; assay type: in vivo; conditions: paddy field pot, 500 g/ha dropwise at 1.5 leaf stage of barnyardgrass, 3 weeks, rank vs non-treated
Method in brief: as §1

[9] = test system: cotton; assay: Foliar spread test for upland field; assay type: in vivo; conditions: foliar spray 500 ppm, 3 weeks, rank vs non-treated
Method in brief: (§4)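 Wettable powders at 500 ppm, with 0.5% surfactant, were sprayed uniformly over plants raised for roughly 2 weeks in glasshouse pots of volcanic ash soil. Herbicidal damage rated on a 0–5 scale (5 = all killed) after a further 3 weeks at an average 25 °C.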

[10] = test system: soybean; assay: Foliar spread test for upland field; assay type: in vivo; conditions: foliar spray 500 ppm, 3 weeks, rank vs non-treated
Method in brief: as §4

[11] = test system: barnyardgrass; assay: Foliar spread test for upland field; assay type: in vivo, Echinochloa crusgalli; conditions: foliar spray 500 ppm, 3 weeks, rank vs non-treated
Method in brief: as §3

[12] = test system: bulrush; assay: Herbicidal test for paddy field; assay type: in vivo, Scrips juncoides; conditions: paddy field pot, 500 g/ha dropwise at 1.5 leaf stage of barnyardgrass, 3 weeks, rank vs non-treated
Method in brief: as §1

| Compound | Effect Barnyardgrass [1] | Effect Monochoria [2] | Effects Blackgrass [3] | Effects Common lambsquarters [4] | Effects Velvetleaf [5] | Effects Blackgrass [6] | Effects Velvetleaf [7] | Effect Young rice plant [8] | Effects Cotton [9] | Effects Soybean [10] | Effects Barnyardgrass [11] | Effect Bulrush [12] |
| --- | --- | --- | --- | --- | --- | --- | --- | --- | --- | --- | --- | --- |
| CCCC(Oc1cccc(C(F)(F)F)c1)c1nc2cc(F)c(C(F)(F)F)cc2o1 (centres unmarked) [Compound 474] | 2 | 5 | 5 | 5 | 5 | 2 | 2 | – | – | – | – | – |
| CCC(Oc1ccc(F)c(C(F)(F)F)c1)c1nc2cc(C(F)(F)F)ccc2o1 (centres unmarked) [Compound 197] | 4 | 5 | 5 | 4 | 5 | 4 | 3 | 3 | 3 | 5 | 1 | – |
| CC(Oc1ccc(F)c(C(F)(F)F)c1)c1nc2cc(Cl)ccc2o1 (centres unmarked) [Compound 137] | 3 | 3 | 3 | 2 | – | – | 1 | 1 | 2 | 3 | – | 3 |
| CCCC(Oc1ccc(F)c(C(F)(F)F)c1)c1nc2cc(F)c(Cl)cc2o1 (centres unmarked) [Compound 494] | 5 | 5 | 5 | 4 | 3 | – | 2 | – | 2 | – | – | 3 |
| CCC(Oc1cccc(C(F)(F)F)c1)c1nc2cc(Cl)ccc2o1 (centres unmarked) [Compound 140] | 5 | 5 | 4 | 4 | 1 | 2 | 2 | 1 | 3 | 3 | 2 | – |
| CCC(Oc1cccc(C(F)(F)F)c1)c1nc2cc(C#N)c(C#N)cc2o1 (centres unmarked) [Compound 315] | 3 | 4 | 5 | 4 | 5 | 2 | 4 | 1 | – | – | – | 2 |
| CCC(Oc1cccc(C#N)c1)c1nc2cc(F)c(Cl)cc2o1 (centres unmarked) [Compound 498] | 3 | 2 | 4 | 5 | 3 | – | 2 | 1 | – | – | – | 3 |
| CCCC(Oc1cccc(C(F)(F)F)c1)c1nc2cc(F)c(Cl)cc2o1 (centres unmarked) [Compound 497] | 4 | 4 | – | 5 | 3 | – | 3 | 2 | 2 | – | – | 2 |
